Experimental data: patent US20250296959A1, “B7-H3 TARGETING PEPTIDES AND CONSTRUCTS THEREOF” (Mariana Oncology Inc., priority 2024, published 2025)
Starred links: 1 amine or outer side, 2 acyl side, 3 side chain; linkers in the order of their positions; H or OH if unused. Positions of bridges follow the written chain, without caps; N, C: chain ends. Non-standard residues stand in square brackets, D forms with d. Residues, ends and D or L forms follow the SMILES beside them. Groups on a side chain read outwards from the residue. *: point of attachment. Ala(piperidin-4-yl) = O=C([C@H](CC1CCN([*:3])CC1)N[*:1])[*:2]; DOTA = O=C(O)CN1CCN(CC(=O)O)CCN(CC(=O)*)CCN(CC(=O)O)CC1; Phe(4-NHCONH2) = NC(=O)Nc1ccc(C[C@H](N)C(=O)O)cc1; Trp(5-F) = N[C@@H](Cc1c[nH]c2ccc(F)cc12)C(=O)O; X1 = C[C@@H](c1ccccc1)[C@H](N[*:1])C(=O)[*:2]; Phe(3R-Me) = C[C@H](c1ccccc1)[C@H](N)C(=O)O; 1Nal = N[C@@H](Cc1cccc2ccccc12)C(=O)O; Ala(4-THP) = N[C@@H](CC1CCOCC1)C(=O)O; Phe(2-OH) = N[C@@H](Cc1ccccc1O)C(=O)O; hTyr = N[C@@H](CCc1ccc(O)cc1)C(=O)O; Val(3-OH) = CC(C)(O)[C@H](N)C(=O)O; tBuAla = CC(C)(C)C[C@H](N)C(=O)O; 4Pal = N[C@@H](Cc1ccncc1)C(=O)O; Cha = N[C@@H](CC1CCCCC1)C(=O)O; Chg = N[C@H](C(=O)O)C1CCCCC1; Tle = CC(C)(C)[C@H](N)C(=O)O; hLeu = CC(C)CC[C@H](N)C(=O)O; NMeS = CN[C@@H](CO)C(=O)O; PEG2 = NCCOCCOCCC(=O)O; CH2 = C([*:1])[*:2]

Target: T1, human 4lg B7-H3 (Homo sapiens, UniProt Q5ZPR3)
T1 sequence (Q5ZPR3 29-534): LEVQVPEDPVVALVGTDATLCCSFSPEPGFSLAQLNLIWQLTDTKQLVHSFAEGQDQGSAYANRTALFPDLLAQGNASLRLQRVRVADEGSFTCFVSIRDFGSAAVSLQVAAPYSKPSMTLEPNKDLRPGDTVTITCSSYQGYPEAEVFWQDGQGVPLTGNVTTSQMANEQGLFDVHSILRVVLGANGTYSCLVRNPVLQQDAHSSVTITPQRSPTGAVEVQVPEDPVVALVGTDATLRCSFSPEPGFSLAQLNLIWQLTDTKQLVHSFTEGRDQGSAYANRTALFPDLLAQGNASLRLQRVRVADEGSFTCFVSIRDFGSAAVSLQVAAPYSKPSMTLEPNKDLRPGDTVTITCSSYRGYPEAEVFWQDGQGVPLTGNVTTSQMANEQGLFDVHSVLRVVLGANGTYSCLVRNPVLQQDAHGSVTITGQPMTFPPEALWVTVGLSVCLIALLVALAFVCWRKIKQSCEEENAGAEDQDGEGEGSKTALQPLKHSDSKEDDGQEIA
Test: Affinity determination by surface plasmon resonance (SPR) to 4Ig B7-H3
Details: 4Ig B7-H3

[1] = SPR KD—37° C., 37° C. flow cell temperature
[2] = SPR KD—25° C., 25° C. flow cell temperature

SMILES	Kd [1] [nM]	Kd [2] [nM]
CC(=O)N[C@@H](CCC(C)C)C(=O)N[C@@H](Cc1ccc(O)cc1)C(=O)N[C@H]1CSSC[C@@H](C(=O)N[C@@H](Cc2c[nH]c3ccc(F)cc23)C(=O)N[C@H](C(=O)N[C@H](C(=O)N[C@H](CCCCNC(=O)CN2CCN(CC(=O)O)CCN(CC(=O)O)CCN(CC(=O)O)CC2)C(=O)O)C(C)(C)O)[C@H](C)c2ccccc2)NC(=O)[C@H](Cc2ccc(O)cc2)NC(=O)[C@H](C(C)C)NC(=O)[C@H](CC(=O)O)NC(=O)[C@H](CC2CCOCC2)NC(=O)[C@H](CC2CCNCC2)NC(=O)CNC(=O)[C@H](C(C)(C)C)NC1=O [compound 434, Ac-hLeu-Y-C-Tbg-G-PipAla-ThpA-D-V-Y-C-5FW-[(2S, 3R)beta-Me-Phe]-hydroxyVal-dLys(DOTA)-COOH] (Ac-[hLeu]YC[Tle]G[Ala(piperidin-4-yl)][Ala(4-THP)]DVYC[Trp(5-F)][Phe(3R-Me)][Val(3-OH)][dK](DOTA)-OH; disulfide 3-11)	< 1	
CC(=O)N[C@@H](CCC(C)C)C(=O)N[C@@H](Cc1ccc(O)cc1)C(=O)N[C@H]1CSCSC[C@@H](C(=O)N[C@@H](Cc2cccc3ccccc23)C(=O)N[C@@H](Cc2ccccc2)C(=O)N(C)[C@@H](CO)C(=O)N[C@H](CCCCNC(=O)CN2CCN(CC(=O)O)CCN(CC(=O)O)CCN(CC(=O)O)CC2)C(N)=O)NC(=O)[C@H](Cc2ccc(O)cc2)NC(=O)[C@H](C(C)C)NC(=O)[C@H](CC(=O)O)NC(=O)[C@H](Cc2ccncc2)NC(=O)[C@H](CCCCN)NC(=O)CNC(=O)[C@H](C(C)(C)C)NC1=O [compound 297, Ac-hLeu-Y-C(CH2)-Tbg-G-K-4PyA-D-V-Y-C-1Nal-F-NMeSer-dLys(DOTA)-CONH2] (Ac-[hLeu]YC[Tle]GK[4Pal]DVYC[1Nal]F[NMeS][dK](DOTA)-NH2; linker 3-11 via CH2)		100 to 300
CC(=O)N[C@@H](CCC(C)C)C(=O)N[C@@H](Cc1ccc(O)cc1)C(=O)N[C@H]1CSSC[C@@H](C(=O)N[C@@H](Cc2c[nH]c3ccc(F)cc23)C(=O)N[C@@H](CC(C)(C)C)C(=O)N[C@H](C(=O)N[C@H](CCCCNC(=O)CN2CCN(CC(=O)O)CCN(CC(=O)O)CCN(CC(=O)O)CC2)C(=O)O)[C@@H](C)O)NC(=O)[C@H](Cc2ccc(O)cc2)NC(=O)[C@H](C(C)C)NC(=O)[C@H](CC(=O)O)NC(=O)[C@H](CC2CCOCC2)NC(=O)[C@H](CCCCN)NC(=O)CNC(=O)[C@H](C(C)(C)C)NC1=O [compound 360, Ac-hLeu-Y-C-Tbg-G-K-ThpA-D-V-Y-C-5FW-tBuAla-Thr-dLys(DOTA)-COOH] (Ac-[hLeu]YC[Tle]GK[Ala(4-THP)]DVYC[Trp(5-F)][tBuAla]T[dK](DOTA)-OH; disulfide 3-11)		1 to 10
CC(=O)N[C@@H](CCC(C)C)C(=O)N[C@@H](Cc1ccc(O)cc1)C(=O)N[C@H]1CSSC[C@@H](C(=O)N[C@@H](Cc2cccc3ccccc23)C(=O)N[C@@H](Cc2ccccc2)C(=O)N2CCC[C@H]2C(=O)N[C@H](CCCCNC(=O)CN2CCN(CC(=O)O)CCN(CC(=O)O)CCN(CC(=O)O)CC2)C(N)=O)NC(=O)[C@H](Cc2ccc(O)cc2)NC(=O)[C@H](C(C)C)NC(=O)[C@H](CC(=O)O)NC(=O)[C@H](Cc2ccc(O)cc2)NC(=O)[C@H](CCCCN)NC(=O)CNC(=O)[C@H](C(C)C)NC1=O [compound 245, Ac-hLeu-Y-C-V-G-K-Y-D-V-Y-C-1Nal-F-Pro-dLys(DOTA)-CONH2] (Ac-[hLeu]YCVGKYDVYC[1Nal]FP[dK](DOTA)-NH2; disulfide 3-11)		1 to 10
CC(=O)N[C@@H](CCC(C)C)C(=O)N[C@@H](Cc1ccc(O)cc1)C(=O)N[C@H]1CSSC[C@@H](C(=O)N[C@@H](Cc2c[nH]c3ccc(F)cc23)C(=O)N[C@@H](Cc2ccccc2)C(=O)N[C@H](C(=O)N[C@H](CCCCNC(=O)CN2CCN(CC(=O)O)CCN(CC(=O)O)CCN(CC(=O)O)CC2)C(N)=O)[C@@H](C)O)NC(=O)[C@H](Cc2ccc(O)cc2)NC(=O)[C@H](C(C)C)NC(=O)[C@H](CC(=O)O)NC(=O)[C@H](CCc2ccc(O)cc2)NC(=O)[C@H](CCCCN)NC(=O)CNC(=O)[C@H](C(C)C)NC1=O [compound 167, Ac-hLeu-Y-C-V-G-K-hTyr-D-V-Y-C-5FW-F-Thr-dLys(DOTA)-CONH2] (Ac-[hLeu]YCVGK[hTyr]DVYC[Trp(5-F)]FT[dK](DOTA)-NH2; disulfide 3-11)		1 to 10
CC(=O)N[C@@H](CCC(C)C)C(=O)N[C@@H](Cc1ccc(O)cc1)C(=O)N[C@H]1CSSC[C@@H](C(=O)N[C@@H](Cc2c[nH]c3ccc(F)cc23)C(=O)N[C@@H](Cc2ccccc2)C(=O)N[C@H](C(=O)N[C@H](CCCCNC(=O)CN2CCN(CC(=O)O)CCN(CC(=O)O)CCN(CC(=O)O)CC2)C(=O)O)C(C)(C)O)NC(=O)[C@H](Cc2ccccc2O)NC(=O)[C@H](C(C)C)NC(=O)[C@H](CC(=O)O)NC(=O)[C@H](CC2CCOCC2)NC(=O)[C@H](CC2CCNCC2)NC(=O)CNC(=O)[C@H](C(C)(C)C)NC1=O [compound 467, Ac-hLeu-Y-C-Tbg-G-PipAla-ThpA-D-V-20HPhe-C-5FW-F-hydroxyVal-dLys(DOTA)-COOH] (Ac-[hLeu]YC[Tle]G[Ala(piperidin-4-yl)][Ala(4-THP)]DV[Phe(2-OH)]C[Trp(5-F)]F[Val(3-OH)][dK](DOTA)-OH; disulfide 3-11)	1 to 10	
CC(=O)N[C@@H](CC1CCCCC1)C(=O)N[C@@H](Cc1ccc(O)cc1)C(=O)N[C@H]1CSSC[C@@H](C(=O)N[C@@H](Cc2c[nH]c3ccc(F)cc23)C(=O)N[C@@H](Cc2ccccc2)C(=O)N[C@H](C(=O)N[C@H](CCCCNC(=O)CN2CCN(CC(=O)O)CCN(CC(=O)O)CCN(CC(=O)O)CC2)C(=O)O)C(C)(C)O)NC(=O)[C@H](Cc2ccc(O)cc2)NC(=O)[C@H](C(C)C)NC(=O)[C@H](CC(=O)O)NC(=O)[C@H](CC2CCOCC2)NC(=O)[C@H](CCCCN)NC(=O)CNC(=O)[C@H](C(C)(C)C)NC1=O [compound 367, Ac-Cha-Y-C-Tbg-G-K-ThpA-D-V-Y-C-5FW-F-hydroxyVal-dLys(DOTA)-COOH] (Ac-[Cha]YC[Tle]GK[Ala(4-THP)]DVYC[Trp(5-F)]F[Val(3-OH)][dK](DOTA)-OH; disulfide 3-11)	1 to 10	
CC(=O)N[C@@H](CCC(C)C)C(=O)N[C@@H](Cc1ccc(O)cc1)C(=O)N[C@H]1CSSC[C@@H](C(=O)N[C@@H](Cc2c[nH]c3ccc(F)cc23)C(=O)N[C@@H](Cc2ccccc2)C(=O)N[C@H](C(=O)N[C@H](CCC(=O)O)C(N)=O)C(C)(C)O)NC(=O)[C@H](Cc2ccc(O)cc2)NC(=O)[C@H](C(C)C)NC(=O)[C@H](CC(=O)O)NC(=O)[C@H](CC2CCN(C(=O)CCOCCOCCNC(=O)CN3CCN(CC(=O)O)CCN(CC(=O)O)CCN(CC(=O)O)CC3)CC2)NC(=O)[C@H](CC2CCNCC2)NC(=O)CNC(=O)[C@H](C(C)(C)C)NC1=O [Cpd #458, Ac-hLeu-Y-C-Tbg-G-PipAla-Pip(PEG2-DOTA)Ala-D-V-Y-C-5FW-F-hydroxyVal-dGlu-CONH2] (Ac-[hLeu]YC[Tle]G[Ala(piperidin-4-yl)][Ala(piperidin-4-yl)]([PEG2-DOTA])DVYC[Trp(5-F)]F[Val(3-OH)][dE]-NH2; disulfide 3-11)	< 1	
CC(=O)N[C@@H](CCC(C)C)C(=O)N[C@@H](Cc1ccc(O)cc1)C(=O)N[C@H]1CSSC[C@@H](C(=O)N[C@@H](Cc2c[nH]c3ccccc23)C(=O)N[C@@H](Cc2ccccc2)C(=O)N[C@H](C(=O)N[C@H](CCCCNC(=O)CN2CCN(CC(=O)O)CCN(CC(=O)O)CCN(CC(=O)O)CC2)C(N)=O)[C@@H](C)O)NC(=O)[C@H](Cc2ccc(O)cc2)NC(=O)[C@H](C2CCCCC2)NC(=O)[C@H](CC(=O)O)NC(=O)[C@H](Cc2ccncc2)NC(=O)[C@H](CCCCN)NC(=O)CNC(=O)[C@H](C(C)(C)C)NC1=O [compound 152, Ac-hLeu-Y-C-Tbg-G-K-4PyA-D-ChG-Y-C-W-F-Thr-dLys(DOTA)-CONH2] (Ac-[hLeu]YC[Tle]GK[4Pal]D[Chg]YCWFT[dK](DOTA)-NH2; disulfide 3-11)		< 1
CC(=O)N[C@@H](CCC(C)C)C(=O)N[C@@H](Cc1ccc(O)cc1)C(=O)N[C@H]1CSSC[C@@H](C(=O)N[C@@H](Cc2c[nH]c3ccccc23)C(=O)N[C@@H](Cc2ccccc2)C(=O)N2CCC[C@H]2C(=O)N[C@@H](CCCCNC(=O)CN2CCN(CC(=O)O)CCN(CC(=O)O)CCN(CC(=O)O)CC2)C(N)=O)NC(=O)[C@H](Cc2ccc(O)cc2)NC(=O)[C@H](C(C)C)NC(=O)[C@H](CC(=O)O)NC(=O)[C@H](Cc2ccc(O)cc2)NC(=O)[C@H](CCCCN)NC(=O)CNC(=O)[C@H](C(C)C)NC1=O [compound 141, Ac-hLeu-Y-C-V-G-K-Y-D-V-Y-C-W-F-Pro-dLys(DOTA)-CONH2] (Ac-[hLeu]YCVGKYDVYCWFPK(DOTA)-NH2; disulfide 3-11)		1 to 10
CC(=O)N[C@@H](CCC(C)C)C(=O)N[C@@H](Cc1ccc(O)cc1)C(=O)N[C@H]1CSSC[C@@H](C(=O)N[C@@H](Cc2c[nH]c3ccc(F)cc23)C(=O)N[C@H](C(=O)N[C@H](C(=O)N[C@H](CCCCNC(=O)[C@H](CCC(=O)O)NC(=O)CN2CCN(CC(=O)O)CCN(CC(=O)O)CCN(CC(=O)O)CC2)C(=O)O)C(C)(C)O)[C@@H](C)c2ccccc2)NC(=O)[C@H](Cc2ccc(NC(N)=O)cc2)NC(=O)[C@H](C(C)C)NC(=O)[C@H](CC(=O)O)NC(=O)[C@H](CC2CCOCC2)NC(=O)[C@H](CC2CCNCC2)NC(=O)CNC(=O)[C@H](C(C)(C)C)NC1=O [compound 503, Ac-hLeu-Y-C-Tbg-G-PipAla-ThpA-D-V-Aph(Cbm)-C-5FW-[(2S, 3S)beta-Me-Phe]-hydroxyVal-dLys(Glu-DOTA)-COOH] (Ac-[hLeu]YC[Tle]G[Ala(piperidin-4-yl)][Ala(4-THP)]DV[Phe(4-NHCONH2)]C[Trp(5-F)][X1][Val(3-OH)][dK]([Glu-DOTA])-OH; disulfide 3-11)	< 1	
